Reference: patent US11197477B2, “Aqueous capsule suspension concentrates based on 2-[(2,4-dichlorophenyl)methyl]-4,4′-dimethyl-3-isoxazolidinone” (priority 2016, dated 2021)

What was measured:
[1] = Solubility of the active ingredient in Solvesso 200 ND; type: physicochemical; conditions: at room temperature; at higher concentrations the active ingredient crystallizes out in the capsule
Text: At higher concentrations, the active ingredient crystallizes out in the capsule.

[2] = cited from earlier work

solubility of the active ingredient in Solvesso 200 ND [1] | Structure (SMILES) | water solubility [2]
35 % by weight | CC1(C)CON(Cc2ccc(Cl)cc2Cl)C1=O [DCPMI, 2-[(2,4-dichlorophenyl)methyl]-4,4′-dimethyl-3-isoxazolidinone] | 39.5 ppm
– | CC1(C)CON(Cc2ccccc2Cl)C1=O [clomazone, 2-(2-chlorobenzyl)-4,4-dimethyl-1,2-oxazolidin-3-one] | 1000 ppm
